Assay results from publication PMC9420858, “Synthesis, bioactivity, and molecular docking of novel arylpiperazine derivatives as potential AR antagonists” (Frontiers in Chemistry, 2022).
Like-named read-outs stand apart in the source and are kept apart here.

How the values were obtained:
PC-3 cells [1] = test: Antiproliferative activity, CCK-8 assay, PC-3 cells; type: cell-based; details: PC-3 human prostate cancer cell line, 24 h, mean ± SD of three experiments
Experimental: (§1) The antiproliferative activity of compounds 5–26 was assessed using the CCK-8 assay ([Chen et al., 2016]; [Chen et al., 2017]; [Chen et al., 2018]; [Han et al., 2020]; [Guo et al., 2021]; [Hu et al., 2022]; [Zhou et al., 2022]). The 96-well plates (1×10^5 cells/mL) were seeded with cells in a medium, the plates were cultured at 37 °C for 24 h, then different concentrations of tested drugs were added, and the plates were cultured for 24 h. After 24 h, 10 μL of CCK-8 solution (5 mg/ml) was added to the wells, and the cells were cultured for 1 h at 37°C. Cell growth inhibition was performed by measuring the absorbance at 450 nm using a microplate reader, and the percentage of cell growth inhibition was then calculated for each tested drug.
(§2) Antiproliferative activity of the novel arylpiperazine derivatives was firstly evaluated against LNCaP cells using the CCK-8 assay. […] Naftopidil and finasteride ([Banday et al., 2014]) were used as control compounds. RWPE-1 cells were used to compare their toxicity. To clarify whether the antiproliferative activity was related to any interference with AR function, the AR antagonist effect was evaluated using the luciferase reporter gene assay. […] The AR luciferase assays were conducted under the co-treatment of 1 nM AR agonist R1881, and the antagonistic activity was measured by inhibiting the R1881-induced luciferase expression.

RWPE-1 cells = test: Cytotoxicity, CCK-8 assay, RWPE-1 normal prostate epithelial cells; type: cell-based; details: RWPE-1 normal non-cancer human prostate epithelial cell line, 24 h, mean ± SD of three experiments
Experimental: as §1, §2

AR-LBD (GST) = biological target: T1, AR-LBD (GST) (Rattus norvegicus, UniProt P15207); test: AR binding, fluorescence polarization (PolarScreen AR Competitor Assay)
T1 sequence (P15207 651-882 limits assumed): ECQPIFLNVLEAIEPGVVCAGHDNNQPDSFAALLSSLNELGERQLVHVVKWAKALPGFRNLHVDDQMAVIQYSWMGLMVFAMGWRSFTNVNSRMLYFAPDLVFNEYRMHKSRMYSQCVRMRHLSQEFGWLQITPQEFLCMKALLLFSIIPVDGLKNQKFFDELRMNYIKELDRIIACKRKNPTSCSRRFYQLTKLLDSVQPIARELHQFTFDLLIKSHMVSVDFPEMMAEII
Experimental: Briefly, titrations are performed between the tested compounds and the preformed Fluormone™AL Green and the AR-LBD (GST) complex. The tested mixture was allowed to equilibrate at room temperature in 384-well plates for 4 h. […] Data of the ligand binding assays were analyzed using Prism software (GraphPad Software, Inc.).

LNCaP cells [2] = test: Antiproliferative activity, CCK-8 assay, LNCaP cells; type: cell-based; details: 24 h, LNCaP human prostate cancer cell line, mean ± SD of three experiments
Experimental: as §1, §2

LNCaP cells [3] = details: printed without SD, ref Banday et al., 2014, read-out: LNCaP IC50 (control compound finasteride); cited from earlier work
PC-3 cells [4] = details: printed without SD, ref Banday et al., 2014, read-out: PC-3 IC50 (control compound finasteride); cited from earlier work
[5] = AR binding affinity IC50, fluorescence polarization

Row | SMILES | IC50 (PC-3 cells [1]) | IC50 (RWPE-1 cells) | melting point | IC50 (AR-LBD (GST)) | IC50 (AR-LBD (GST); [5]) | IC50 (LNCaP cells [2]; Homo sapiens, LNCaP) | IC50 (LNCaP cells [2]) | IC50 (LNCaP cells [3]) | IC50 (PC-3 cells [4])
1 | c1ccc(N2CCN(CCc3ccc(COc4ccc5c(c4)CCC5)cc3)CC2)cc1 [Compound 5, 1-(4-((2,3-dihydro-1H-inden-5-yloxy)methyl)phenethyl)-4-phenylpiperazine] | > 50 µM | > 50 µM | 82.2 to 83.5 °C | 1.46 ± 0.24 µM | < 2 µM |  |  |  | 
2 | Cc1ccccc1N1CCN(CCc2ccc(COc3ccc4c(c3)CCC4)cc2)CC1 [Compound 8, 1-(4-((2,3-dihydro-1H-inden-5-yloxy)methyl)phenethyl)-4-o-tolylpiperazine] | > 50 µM | > 50 µM | 62.3 to 63.1 °C | 2.35 ± 0.09 µM | < 3 µM | < 10 µM | 7.37 ± 0.15 µM |  | 
3 | COc1ccccc1N1CCN(CCc2ccc(COc3ccc4c(c3)CCC4)cc2)CC1 [Compound 12, 1-(4-((2,3-dihydro-1H-inden-5-yloxy)methyl)phenethyl)-4-(2-methoxyphenyl)piperazine] | 25.62 ± 0.17 µM | > 50 µM | 77.3 to 78.5 °C | 2.53 ± 0.15 µM | < 3 µM | < 10 µM | 8.12 ± 0.11 µM |  | 
4 | COc1cccc(N2CCN(CCc3ccc(COc4ccc5c(c4)CCC5)cc3)CC2)c1 [Compound 14, 1-(4-((2,3-dihydro-1H-inden-5-yloxy)methyl)phenethyl)-4-(3-methoxyphenyl)piperazine] | 0.87 ± 0.12 µM | > 50 µM | 74.2 to 75.4 °C | 2.62 ± 0.25 µM |  |  |  |  | 
5 | COc1ccc(N2CCN(CCc3ccc(COc4ccc5c(c4)CCC5)cc3)CC2)cc1 [Compound 15, 1-(4-((2,3-dihydro-1H-inden-5-yloxy)methyl)phenethyl)-4-(4-methoxyphenyl)piperazine] | 8.94 ± 0.21 µM | 21.7 ± 0.23 µM | 78.1 to 79.3 °C | 2.85 ± 0.65 µM |  | < 10 µM | 9.72 ± 0.13 µM |  | 
6 | Clc1ccccc1N1CCN(CCc2ccc(COc3ccc4c(c3)CCC4)cc2)CC1 [Compound 19, 1-(4-((2,3-dihydro-1H-inden-5-yloxy)methyl)phenethyl)-4-(2-chlorophenyl)piperazine] | > 50 µM | 32.67 ± 0.14 µM | 91.4 to 92.1 °C | 2.06 ± 0.21 µM | < 3 µM | < 10 µM | 6.87 ± 0.06 µM |  | 
7 | Clc1ccc(N2CCN(CCc3ccc(COc4ccc5c(c4)CCC5)cc3)CC2)cc1 [Compound 21, 1-(4-((2,3-dihydro-1H-inden-5-yloxy)methyl)phenethyl)-4-(4-chlorophenyl)piperazine] | > 50 µM | > 50 µM | 117.2 to 118.6 °C | 0.65 ± 0.08 µM | < 2 µM |  |  |  | 
8 | Clc1cccc(N2CCN(CCc3ccc(COc4ccc5c(c4)CCC5)cc3)CC2)c1Cl [Compound 22, 1-(4-((2,3-dihydro-1H-inden-5-yloxy)methyl)phenethyl)-4-(2,3-dichlorophenyl)piperazine] | 23.48 ± 0.23 µM | > 50 µM | 77.2 to 78.4 °C | 2.47 ± 0.11 µM | < 3 µM | < 10 µM | 6.32 ± 0.14 µM |  | 
9 | Brc1ccc(N2CCN(CCc3ccc(COc4ccc5c(c4)CCC5)cc3)CC2)cc1 [Compound 24, 1-(4-((2,3-dihydro-1H-inden-5-yloxy)methyl)phenethyl)-4-(4-bromophenyl)piperazine] | 2.31 ± 0.23 µM | > 50 µM | 114.1 to 115.2 °C |  |  | 14.7 ± 0.15 µM |  |  | 
10 | FC(F)(F)c1ccccc1N1CCN(CCc2ccc(COc3ccc4c(c3)CCC4)cc2)CC1 [Compound 25, 1-(4-((2,3-dihydro-1H-inden-5-yloxy)methyl)phenethyl)-4-(2-(trifluoromethyl)phenyl)piperazine] | > 50 µM | > 50 µM | 53.6 to 54.8 °C | 1.22 ± 0.15 µM | < 2 µM |  |  |  | 
11 | FC(F)(F)c1ccc(N2CCN(CCc3ccc(COc4ccc5c(c4)CCC5)cc3)CC2)cc1 [Compound 26, 1-(4-((2,3-dihydro-1H-inden-5-yloxy)methyl)phenethyl)-4-(4-(trifluoromethyl)phenyl)piperazine] | > 50 µM | > 50 µM | 135.3 to 136.5 °C | 1.43 ± 0.18 µM | < 2 µM |  |  |  | 
12 | CC(C)(C)NC(=O)[C@H]1CC[C@H]2[C@@H]3CC[C@H]4NC(=O)C=C[C@]4(C)[C@H]3CC[C@]12C [Finasteride] |  |  |  |  |  |  |  | 13.5 µM | 17.8 µM
